This passage reports Activity and zone of inhibition results from ChEMBL document CHEMBL1149826, “Chemical constituents and diversity of Ligularia lankongensis in Yunnan Province of China” (2008).

For this assay, the system named is Bacillus subtilis. Put plainly: Antibacterial activity against Bacillus subtilis PCI219 assessed as inhibition zone diameter at […] after 24 hrs by paper disk diffusion assay. It counts as functional.

Each structure is given as a SMILES string. Calls of active or inactive are those of the source. No cut-off for these calls is given here.

In the case of `C=C(C(CC1OC1(C)C)OC(=O)/C(C)=C\C)[C@H]1[C@H](OC(=O)/C(C)=C\C)[C@H]2O[C@@]2(C)[C@@H](O)[C@H]1OC(=O)/C(C)=C\C` (some centres not stated), the outcome was Active. As for `CC[C@H]1OC(=O)[C@H](C)[C@@H](O[C@H]2C[C@@](C)(OC)[C@@H](O)[C@H](C)O2)[C@H](C)[C@@H](O[C@@H]2O[C@H](C)C[C@H](N(C)C)[C@H]2O)[C@](C)(O)C[C@@H](C)C(=O)[C@H](C)[C@@H](O)[C@]1(C)O` [ERYTHROMYCIN], the zone of inhibition at 10 mg/kg (PCI219, 24 h, read-out: IZ) is 31 mm.
